# Paper PMC5063506, “A Novel Class of Small Molecule Agonists with Preference for Human over Mouse TLR4 Activation” (PLoS ONE, 2016)
# Key:
# cotton rat PBMCs = experiment: Cytokine gene expression in cotton rat PBMCs (QuantiGene Plex); format: cell-based; details: 1 μg/ml, 24 h
# Procedure: (§1) Splenocytes were isolated from naïve BALB/c mice by dissociating spleens with a GentleMACS (Miltenyi) instrument, then filtration through […] screens. For other species, blood was obtained through venipuncture or cardiac puncture into heparinized tubes, then diluted 1:1 with PBS or HBSS and layered onto Ficoll-Histopaque (GE Healthcare) for blood from healthy human volunteers and cynomolgus macaques, Lympholyte-Mammal (Cedarlane Labs) for New Zealand white rabbits, Sprague-Dawley rats, Hartley guinea pigs, cotton rats, and ferrets, followed by standard density centrifugation techniques. […]
# (§2) PBMCs (human, cynomolgus macaque, guinea pig, ferret, rabbit, rat, and cotton rat) or splenocytes (mouse) were seeded onto 96-well flat bottom plates at 5 x 10^5 cells/well and stimulated with TLR4 agonists at 1 and 0.2 μg/ml for 24 h at 37°C. […] For human, cyno, mouse, and rat, cell-free SNs were analyzed via human, NHP, mouse, and rat MILLIPLEX kits. For GP, ferret, rabbit, and CR, cells were lysed by Millipore lysing buffer and snap frozen at -70 C until ready for analysis by Affymetrix QuantiGene 2.0 Plex kits. […] Signal was detected using a Bioplex 200 instrument (BioRad). […]
# Fig 9 Species-specific activation of IL-6, TNF-α, and chemokine expression in primary cells. […] For human, cyno, mouse, and rat, SNs were analyzed via human, NHP, mouse, and rat MILLIPLEX kits. […]
# rat PBMCs = experiment: Cytokine induction in rat PBMCs (rat MILLIPLEX); format: cell-based, Sprague-Dawley rat; details: 1 and 0.2 μg/ml, 24 h
# Procedure: as §1, §2
# Fig 8 Secreted cytokine profile of rat PBMCs stimulated by AZ618. […] SNs were analyzed via rat MILLIPLEX kits. Data are expressed as the means of 3 rats at the 1 μg/ml dose of TLR4 agonist and are representative of 2 studies. […]
# mouse splenocytes = experiment: Cytokine induction in mouse splenocytes (mouse MILLIPLEX); format: cell-based, BALB/c mouse; details: 1 and 0.2 μg/ml, 24 h
# Procedure: as §1, §2
# Fig 6 The Ugi compound-induced cytokine profile is similar to MPL and LPS in human PBMCs but not mouse splenocytes. […] SNs were analyzed via human and mouse MILLIPLEX kits. […]
Compound,activation of cotton rat PBMCs (cotton rat PBMCs),response in rat PBMCs (cytokine secretion) (rat PBMCs),reactivity of mouse splenocytes (cytokine secretion) (mouse splenocytes)
"Cc1cc(C)cc(N(C(=O)c2cc(-c3ccccc3)n(-c3ccccc3)n2)C(C(=O)NC2CCCC2)c2ccc(CC(=O)O)cc2)c1 (stereo not drawn) [AZ618, 2-(4-(2-(cyclopentylamino)-1-(N-(3,5-dimethylphenyl)-1,5-diphenyl-1H-pyrazole-3-carboxamido)-2-oxoethyl)phenyl)acetic acid]",able to activate,comparable to that induced by MPL,–
CC(C)(C)c1ccc(N(C(=O)c2cc(-c3ccccc3)n(-c3ccccc3)n2)C(C(=O)NC2CCCC2)c2ccc(CC(=O)O)cc2)cc1 (stereo not drawn) [AZ902],–,–,marginal activation
